Assay results as given in paper PMC6792352, “Limited Chemical Structural Diversity Found to Modulate Thyroid Hormone Receptor in the Tox21 Chemical Library” (Environmental Health Perspectives, 2019).
Where a name gives a salt, the structure may show the parent alone.

Assay: in vitro
Settings: rat, gh3-tre-luc cells, AC50 (uM) modified / 1000
In the case of CC(C)(C)NCC(O)COc1cccc2c1CCC(=O)N2 (centres unmarked) [Carteolol hydrochloride], the CC50 at 24 h was over 20 µM.
With FC(F)(F)c1ccc(Cl)c(Cl)c1 [1,2-Dichloro-4-(trifluoromethyl)benzene] the CC50 at 24 h was over 90 µM.
Cc1coc2c1CCC(C)C2 (centres unmarked) [Menthofuran] showed a CC50 at 24 h of over 90 µM.
Compound CCCCCCCC/C=C\CCCCCCCC(=O)OC[C@@H](O)[C@H]1OC[C@H](O)[C@H]1O [Sorbitan, mono-(9Z)-9-octadecenoate] has a CC50 at 24 h of over 50 µM.
For CC(C)OC(=O)COc1ccc(Cl)cc1Cl [2,4-D isopropyl ester], the CC50 at 24 h was over 90 µM.
With CC(=O)OCC=C(C)C [3,3-Dimethylallyl acetate] the CC50 at 24 h was over 60 µM.
In the case of CC(CNC(=O)c1cccnc1)NC(=O)c1cccnc1 (centres unmarked) [Nicaraven], the CC50 at 24 h was over 50 µM.
For CN(C)CCC(c1ccccc1)c1ccccn1 (centres unmarked) [Pheniramine maleate], the CC50 at 24 h was over 90 µM.
With C=CCN1CC[C@]23c4c5ccc(O)c4O[C@H]2C(=O)CC[C@@]3(O)[C@H]1C5 [Naloxone] the CC50 at 24 h was over 50 µM.
For OC[C@H]1O[C@@H](OCCc2ccc(O)cc2)[C@H](O)[C@@H](O)[C@@H]1O [Salidroside], the CC50 at 24 h was over 50 µM.
With Cl[C@H]1[C@H](Cl)[C@@H](Cl)[C@H](Cl)[C@@H](Cl)[C@@H]1Cl [beta-Hexachlorocyclohexane] the CC50 at 24 h was over 90 µM.
Work on CC(CC=O)CCCC(C)(C)O (centres unmarked) [Hydroxycitronella] yielded a CC50 at 24 h of over 90 µM.
For O=C(Oc1cccc2cccnc12)c1ccccc1 [Benzoxiquine], the CC50 at 24 h was 12 µM.
Work on Cc1ccc(Cl)cc1 [4-Chlorotoluene] yielded a CC50 at 24 h of over 100 µM.
For c1ccc(C[n+]2cccc3ccccc32)cc1 [1-Benzylquinolinium chloride], the CC50 at 24 h was over 90 µM.
For O=S1(=O)OC(c2ccc(O)cc2)(c2ccc(O)cc2)c2ccccc21 [Phenol Red sodium salt], the CC50 at 24 h was 46.9 µM.
COCc1nnc(-c2ccc[n+]([O-])c2)n1-c1c(Cl)c(Cl)cc2[nH]c(=O)c(=O)[nH]c12 [UK-333747] gave a CC50 at 24 h of over 90 µM.
Compound O=C(Oc1ccccc1)c1ccccc1O [Phenyl salicylate] has a CC50 at 24 h of over 50 µM.
Work on CO/N=C(\C(=O)N[C@@H]1C(=O)N2C(C(=O)O)=C(COC(C)=O)CS[C@H]12)c1csc(N)n1 [Cefotaxime sodium] yielded a CC50 at 24 h of over 50 µM.
With Nc1ncnc2nc[nH]c12 [Adenine] the CC50 at 24 h was over 90 µM.
With O=C(CO)[C@@H](O)[C@@H](O)[C@H](O)CO [D-Tagatose] the CC50 at 24 h was over 50 µM.
For CC1=C(C)S(=O)(=O)CCS1(=O)=O [Dimethipin], the CC50 at 24 h was over 90 µM.
Compound CC1=C(C)C(=O)C(CCCCC#CCCCC#CCO)=C(C)C1=O [Docebenone] has a CC50 at 24 h of 23.5 µM.
With Nc1nc(CC(=O)O)cs1 [2-Amino-4-thiazoleacetic acid] the CC50 at 24 h was over 90 µM.
CNC(=O)c1cc(Oc2ccc(NC(=O)Nc3ccc(Cl)c(C(F)(F)F)c3)cc2)ccn1 [Sorafenib tosylate] gave a CC50 at 24 h of 9.89 µM.
CCn1c2ccccc2c2cc(N)ccc21 [3-Amino-9-ethylcarbazole hydrochloride] gave a CC50 at 24 h of over 90 µM.
Work on Nc1cc(Cl)cc(S(=O)(=O)O)c1O [6-Amino-4-chloro-1-phenol-2-sulfonic acid] yielded a CC50 at 24 h of over 90 µM.
OC(Cn1cncn1)(c1ccc(F)cc1)c1ccccc1F (centres unmarked) [Flutriafol] showed a CC50 at 24 h of over 90 µM.
CCCCC1=NC2(CCCC2)C(=O)N1Cc1ccc(-c2ccccc2-c2nnn[nH]2)cc1 [Irbesartan] showed a CC50 at 24 h of over 50 µM.
For O=C(O)CC(Cl)C(=O)O (centres unmarked) [Chlorobutanedioic acid], the CC50 at 24 h was over 90 µM.
CCC1(c2ccccc2)C(=O)NC(=O)N(C)C1=O (centres unmarked) [Mephobarbital] gave a CC50 at 24 h of over 50 µM.
In the case of CC(C(=O)O)c1ccc(C(=O)c2ccccc2)s1 (centres unmarked) [Tiaprofenic acid], the CC50 at 24 h was over 20 µM.
With CCC(C)(CCCC(C)C)OC(C)=O (centres unmarked) [3,7-Dimethyloctan-3-yl acetate] the CC50 at 24 h was over 90 µM.
For NCC1(CC(=O)O)CCCCC1 [Gabapentin], the CC50 at 24 h was over 20 µM.
Work on Cc1cc(=O)oc2cc(N(C)C)ccc12 [7-(Dimethylamino)-4-methylcoumarin] yielded a CC50 at 24 h of over 90 µM.
In the case of c1cncc([C@@H]2CCCCN2)c1 [L-3-(2'-Piperidyl)pyridine], the CC50 at 24 h was over 90 µM.
Compound O=[N+]([O-])c1ccc(O)c2ncccc12 [Nitroxoline] has a CC50 at 24 h of 4.94 µM.
With CC(C)(C)NCCO [2-(tert-Butylamino)ethanol] the CC50 at 24 h was over 90 µM.
In the case of CC1CN(c2cc3c(cc2F)c(=O)c(C(=O)O)cn3-c2ccc(F)cc2F)CCN1 (centres unmarked) [Temafloxacin], the CC50 at 24 h was over 50 µM.
Work on N#CCc1ccc(Cl)cc1Cl [(2,4-Dichlorophenyl)acetonitrile] yielded a CC50 at 24 h of over 90 µM.
With CC1=CC=C(C(C)C)CC1 [alpha-Terpinene] the CC50 at 24 h was over 90 µM.
For CC(C)OC(=O)Nc1cccc(Cl)c1 [Chlorpropham], the CC50 at 24 h was over 90 µM.
Compound C=C(C)C(=O)OCCOCCOCCOCCOC(=O)C(=C)C [Tetraethyleneglycol dimethacrylate] has a CC50 at 24 h of over 90 µM.
O=C1CCCCCCCCCCOCCCCO1 [12-Oxahexadecanolide] showed a CC50 at 24 h of over 90 µM.
In the case of CCCC1C(=O)N2C(N(C)C)=Nc3ccc(C)cc3N2C1=O (centres unmarked) [Azapropazone], the CC50 at 24 h was over 20 µM.
For CC1CC(O)CC(C)(C)C1 (centres unmarked) [3,3,5-Trimethylcyclohexanol], the CC50 at 24 h was over 90 µM.
c1ccc(-c2ccccn2)nc1 [2,2'-Bipyridine] gave a CC50 at 24 h of over 90 µM.
With Cc1ccc(N(CCO)CCO)cc1 [2,2'-[(4-Methylphenyl)imino]diethanol] the CC50 at 24 h was over 90 µM.
Compound CCCC[N+]1(C)CCCCC1 [1-Butyl-1-methylpiperidinium tetrafluoroborate] has a CC50 at 24 h of over 90 µM.
Compound CCCCC(O)c1ccccc1 (centres unmarked) [Fenipentol] has a CC50 at 24 h of over 50 µM.
With Nc1ccc(S(=O)(=O)Nc2ncccn2)cc1 [Sulfadiazine] the CC50 at 24 h was over 20 µM.
Compound CCOc1ccc(NC(N)=O)cc1 [Dulcin] has a CC50 at 24 h of over 90 µM.
With CC1=C(O)C(=O)OC1C (centres unmarked) [4,5-Dimethyl-3-hydroxy-2,5-dihydrofuran-2-one] the CC50 at 24 h was over 90 µM.
Work on CC/C=C\CC/C=C/C=O [trans-2,cis-6-Nonadienal] yielded a CC50 at 24 h of over 90 µM.
For CC(C)[N+](C)(C)CC(O)COc1cccc2ccccc12 (centres unmarked) [Pranolium chloride], the CC50 at 24 h was over 50 µM.
In the case of CC(=O)OCCC(C)CC(C)(C)C (centres unmarked) [3,5,5-Trimethylhexyl acetate], the CC50 at 24 h was over 90 µM.
Compound CN(CC1(C)CCCO1)S(=O)(=O)c1ccc(Cl)c(S(N)(=O)=O)c1 (centres unmarked) [Mefruside] has a CC50 at 24 h of over 50 µM.
CC(C)OC(=O)Nc1ccc2[nH]c(-c3cscn3)nc2c1 [Cambendazole] gave a CC50 at 24 h of 4.4 µM.
Work on CCCCCCCC(=O)O [Octanoic acid] yielded a CC50 at 24 h of over 90 µM.
In the case of CC[Si](OC(C)=O)(OC(C)=O)OC(C)=O [Ethyltriacetoxysilane], the CC50 at 24 h was over 90 µM.
With CCCCCCCCCCCC[N+](C)(C)Cc1ccccc1 [Benzyldimethyldodecylammonium chloride] the CC50 at 24 h was 10.6 µM.
For C=C[C@@H](C)CCC=C(C)C [(S)-Citronellene], the CC50 at 24 h was over 90 µM.
CCNC(=O)NC(=O)/C(C#N)=N/OC [Cymoxanil] showed a CC50 at 24 h of over 90 µM.
With C[C@@H](O)[C@H](N)C(=O)O [L-Threonine] the CC50 at 24 h was over 50 µM.
Compound COC(=O)c1sccc1S(=O)(=O)NC(=O)Nc1nc(C)nc(OC)n1 [Thifensulfuron-methyl] has a CC50 at 24 h of over 90 µM.
Work on O=c1c(-c2ccc(O)cc2)coc2cc(O)ccc12 [Daidzein] yielded a CC50 at 24 h of over 90 µM.
Work on CCN(CC)CCC(=O)N1c2ccccc2Sc2ccc(C(F)(F)F)cc21 [Fluacizine] yielded a CC50 at 24 h of 20.5 µM.
Compound CCCCCCOC(=O)CCCCC(=O)OCCCCCC [Dihexyl hexanedioate] has a CC50 at 24 h of over 90 µM.
For O=C(O)CN(CCN(CC(=O)O)CC(=O)O)CCN(CC(=O)O)CC(=O)O [Pentetic acid], the CC50 at 24 h was 25 µM.
Compound OCC(O)CS (centres unmarked) [1-Thioglycerol] has a CC50 at 24 h of over 90 µM.
COc1cc(N)c(Cl)cc1C(=O)NC1CCN(Cc2ccccc2)CC1 [Clebopride maleate] showed a CC50 at 24 h of over 20 µM.
In the case of CCCCOC(=O)c1ccccc1C(=O)OCC(CC)CCCC (centres unmarked) [Butyl 2-ethylhexyl phthalate], the CC50 at 24 h was over 90 µM.
Work on C=CCC1([C@@H](C)CCC)C(=O)NC(=O)NC1=O [S-(-)-Secobarbital] yielded a CC50 at 24 h of over 90 µM.
In the case of CC1(C)CNC(=NN=C(/C=C/c2ccc(C(F)(F)F)cc2)/C=C/c2ccc(C(F)(F)F)cc2)NC1 [Hydramethylnon], the CC50 at 24 h was 11.2 µM.

Same assay, conditions: rat, gh3-tre-luc cells, AC50 (uM) modified / 1000, Tox21_110001=Tox21_110149; viability, 1 nM T3 present, 24 h
Compound CCCCc1ccc(C(=O)O)nc1 [Fusaric acid] has a CC50 at 24 h of over 50 µM.

Same assay, conditions: rat, gh3-tre-luc cells, AC50 (uM) modified / 1000, Tox21_110001=Tox21_111132; viability, 1 nM T3 present, 24 h
Work on C[C@H]1CC[C@@H]2[C@@H](C)[C@H]3[C@H](C[C@H]4[C@@H]5CC=C6C[C@@H](O[C@@H]7O[C@H](CO)[C@H](O)[C@H](O[C@@H]8O[C@H](CO)[C@@H](O)[C@H](O)[C@H]8O)[C@H]7O[C@@H]7O[C@@H](C)[C@H](O)[C@@H](O)[C@H]7O)CC[C@]6(C)[C@H]5CC[C@]34C)N2C1 [alpha-Solanine] yielded a CC50 at 24 h of 17.5 µM.

Same assay, conditions: rat, gh3-tre-luc cells, AC50 (uM) modified / 1000, Tox21_110001=Tox21_111857; viability, 1 nM T3 present, 24 h
C[C@]12CC[C@H]3[C@@H](CCC4=C(Cl)C(=O)CC[C@@]43C)[C@@H]1CC[C@@H]2O [Clostebol] gave a CC50 at 24 h of over 50 µM.

Same assay, conditions: rat, gh3-tre-luc cells, AC50 (uM) modified / 1000, Tox21_110001=Tox21_113307; viability, 1 nM T3 present, 24 h
CCCOC(=O)Cc1ccc(OCC(=O)N(CC)CC)c(OC)c1 [Propanidid] showed a CC50 at 24 h of over 50 µM.

Same assay, conditions: rat, gh3-tre-luc cells, AC50 (uM) modified / 1000, Tox21_110001=Tox21_200104; viability, 1 nM T3 present, 24 h
Work on C[C@H]1CC[C@@H]2[C@@H](C)[C@H]3[C@H](C[C@H]4[C@@H]5CC=C6C[C@@H](O[C@@H]7O[C@H](CO)[C@H](O)[C@H](O[C@@H]8O[C@H](CO)[C@@H](O)[C@H](O)[C@H]8O)[C@H]7O[C@@H]7O[C@@H](C)[C@H](O)[C@@H](O)[C@H]7O)CC[C@]6(C)[C@H]5CC[C@]34C)N2C1 [alpha-Solanine] yielded a CC50 at 24 h of 16.1 µM.

Same assay, conditions: rat, gh3-tre-luc cells, AC50 (uM) modified / 1000, Tox21_110001=Tox21_200899; viability, 1 nM T3 present, 24 h
Work on O=[N+]([O-])C(Br)Br [Dibromonitromethane] yielded a CC50 at 24 h of over 90 µM.

Same assay, conditions: rat, gh3-tre-luc cells, AC50 (uM) modified / 1000, Tox21_110001=Tox21_201141; viability, 1 nM T3 present, 24 h
For ClC(Cl)C(Cl)(Cl)Cl [Pentachloroethane], the CC50 at 24 h was over 90 µM.

Same assay, conditions: rat, gh3-tre-luc cells, AC50 (uM) modified / 1000, Tox21_110001=Tox21_201417; viability, 1 nM T3 present, 24 h
Work on CC(Br)C(=O)O (centres unmarked) [2-Bromopropionic acid] yielded a CC50 at 24 h of over 90 µM.

Same assay, conditions: rat, gh3-tre-luc cells, AC50 (uM) modified / 1000, Tox21_110001=Tox21_301581; viability, 1 nM T3 present, 24 h
In the case of O=S1OC[C@@H]2[C@H](CO1)[C@]1(Cl)C(Cl)=C(Cl)[C@@]2(Cl)C1(Cl)Cl (some centres unmarked) [Endosulfan I], the CC50 at 24 h was 69.4 µM.
